In patent US20090036437A1, “PHARMACEUTICAL COMPOSITION COMPRISING PHENOXAZINIUM COMPOUND AS AN ACTIVE INGREDIENT” (priority 2005, published 2009):
Like-named read-outs stand apart in the source and are kept apart here.

Experiments:
Plasmodium falciparum W2 = settings: in vitro; cited from earlier work
malaria = settings: mice infected with malaria; 4-day successive treatment, peritoneal administration 5 mg/kg/day; cited from earlier work
[1] = test system: Plasmodium Falciparum K1 strain; test: in vitro growth-inhibiting screening assay, chloroquine-resistant falciparum malaria; format: cell-based
Experimental: Plasmodium Falciparum K1 strain was used as a chloroquine-resistant protozoa of falciparum malaria. RMI-1640 sterilized by filtration was supplemented with human serum of a final concentration of 5% to be used as a culture medium. The malaria protozoa were cultured under O2 concentration of 3%, CO2 concentration of 4%, N2 concentration of 93% at 37° C.
A test sample was prepared by dissolving the test compounds according to the present invention and a positive control drug (chloroquine) in DMSO to a predetermined concentration. The erythrocytes infected with the cultured malaria protozoa were collected by centrifugation and so diluted with non-infected erythrocytes to have an initial infection ratio of 0.15%. The hematocrit value was then 2.5%. Culture mixture of the above malaria-infection culture medium (200 μL) was placed into each well of a 96-well culture plate, and the test sample comprising the predetermined amount of the test compound, and DMSO without the test compound were added to the wells in duplicate.
After culture for 48 hours at 37° C., hypoxanthine labeled with radioactive tritium (^3H) of 0.5 μCi was added to each well. After the culture in the same conditions for further 24 hours, the sample was taken on a glass fiber filter and washed with distilled water. Intensity of radiation was measured by means of plate liquid scintillation counter (Wallac Co.), and an infection ratio of the protozoa of malaria was calculated with respect to a group treated with the test sample and the control. A growth-inhibiting ratio was then calculated from the resulting infection ratio in accordance with the following equation to determine 50% growth-inhibiting concentration (EC50).
Growth-inhibiting ratio (%)=[1−(b−a)/(c−a)]×100 • a: Initial infection ratio; • b: Infection ratio of the test sample group; and • c: Infection ratio of the control group. In vitro Growth-Inhibiting Assay of Rat L6 Cells
Anti-malaria effect of the samples was assessed by their EC50 values for the chloroquine-resistant protozoa of falciparum malaria and the rat L6 cell. A chemotherapy coefficient, which is used as an index for the selective toxicity for the chloroquine-resistant protozoa of falciparum malaria was calculated by the following equation, and the pharmaceutical effect was determined.
Chemotherapy coefficient=(EC50 value of the test sample for rat L6 cell)/(EC50 value of the test sample for the chloroquine-resistant protozoa of falciparum malaria)

[2] = test system: Plasmodium berghei NK65 strain; test: in vivo 4-day suppressive test, intraperitoneal administration, mouse infected with malaria; settings: 4 days
Experimental: This test was carried out in accordance with 4-day suppressive test that is a general in vivo test for the activity of an anti-malaria compound. Rodent malaria protozoa (Plasmodium berghei NK65 strain) were used in this test. Infected blood was prepared by infection with intraperitoneal administration into ICR male mouse (5 weeks age; SPF) and passage culture (subculture) thereafter. Blood was drawn from the vein of a tail of the moue infected with malaria, and its infection ratio was determined. After it was confirmed that the infection ratio had been increased up to an appropriated level (10˜20%), the blood infected with malaria was drawn from the heart of the mouse. The infection ratio and number (cells/mL) of erythrocytes were determined. An uninfected mouse (ICR male, 5 weeks age) was then infected with an injection of the infected erythrocytes so diluted with PBS as to comprise the protozoa of […] per dose (0.2 mL) into the vein of its tail.
A test sample was prepared by dissolving the test compounds according to the present invention into physiologic saline (Otsuka Pharmaceuticals Industries) to a predetermined concentration. In the case where the compound was insoluble in water, it was dissolved into DMSO or Tween 20 to prepare the test sample. A control group (no drug-administration group) was treated only with physiologic saline. […]
One group consisted of five mice. The intraperitoneal administration of the test sample started after two hours from the infection with malaria and continued for successive 4 days with a 24-hour interval. After 24 hours from the last administration, blood was drawn from the tail of the infected mouse to prepare a thin-layer smear, and the number of the erythrocytes infected with the malaria protozoa under a microscope with respect to the control group and the test sample groups. Parasitemia, i.e., the infection ratio with the malaria protozoa, was obtained by calculating an average value of the medium three mice except the two mice showing a maximum or minimum inhibition level. A cure rate (suppression) was then calculated from the resulting parasitemia in accordance with the following equation.
Cure rate: suppression (%)=(b−a)/b×100 • a: Infection ratio of the test sample group; and • b: Infection ratio of the control group.

[3] = test system: Rat L6 cell (rat skeletal myoblast cell); test: in vitro growth-inhibiting assay of rat L6 cells; format: cell-based
Experimental: Rat L6 cell (rat skeletal myoblast cell) was cultured in RPMI-1640 culture medium supplemented with 1% of L-glutamine (200 mM) and fetal calf serum (10%) under 5% CO2 concentration at 37° C. A test sample was prepared by dissolving the test compounds according to the present invention and a positive control drug in DMSO to a predetermined concentration. After pre-culture had been finished, the culture medium containing the cells in a logarithmic phase was placed into each well of a 96-well culture plate, and the test sample comprising the predetermined amount of the test compound, and DMSO without the test compound were added to the wells in duplicate.
After incubation of the culture plate for 72 hours in an incubator, a growth-inhibiting activity was assayed as follows. Alamar Blue aqueous solution (10 μL) was added to each well followed by a further two-hour culture. The culture plate was then attached to a fluorescence micro titer plate reader (Spectramax Gemeni XS; U.S. Molecular Device Co.), and the intensity of fluorescence at 588 nm was detected with an excitation wave length of 536 nm. A residual ratio of L6 cells was calculated with respect to a group treated with the test sample and a control group. A growth-inhibiting ratio for L6 cells was then calculated from the resulting residual ratio in accordance with the following equation to determine 50% growth-inhibiting concentration (EC50).
Growth-inhibiting ratio (%)=[1−(C−A)/(B−A)]×100 • A: Initial number of cells; • B: Number of the cells in the control after 3 days; and • C: Number of the cells treated with the test sample after 3 days Determination of Pharmaceutical effect for Chloroquine-Resistant Malaria

[4] = test system: Leishmania donovani (MHOM/ET/67/L82 strain); test: in vitro growth-inhibiting screening assay, protozoa of Leishmaniasis; format: cell-based; settings: Leishmania donovani; amastigotes; 72 h, Alamar Blue; read-out: growth-inhibiting concentration (nM) Leishmania donovani
Experimental: This test was done using the protozoa of Leishmania donovani (MHOM/ET/67/L82 strain). The protozoa were subcultured using Syrian Golden hamster and an amastigote was obtained therefrom. The amastigotes were cultured in SM medium supplemented with 10% of heat-treated fetal calf serum (pH 5.4) under CO2 concentration of 5%, at 37° C.
A test sample was prepared by dissolving the test compounds according to the present invention and a positive control drug (Miltefosine) in DMSO to a predetermined concentration. Culture medium containing a predetermined number of the protozoa was added into each well of a 96-well culture plate, and the concentration of the amastigotes was measured by means of CASY cell analysis system (Dermany, Scharfe Co.). Test sample comprising the predetermined amount of the test compound, and DMSO without the test compound were added to the wells in duplicate.
After incubation of the culture plate for 72 hours in an incubator, a growth-inhibiting activity was assayed as follows. Alamar Blue aqueous solution (10 μL) was added to each well followed by a further two-hour culture. The culture plate was then attached to a fluorescence micro titer plate reader (Spectramax Gemeni XS; U.S. Molecular device Co.), the intensity of fluorescence at 588 nm was detected with excitation wave length of 536 nm to calculate an infection ratio of the protozoa with respect to a group trated with the test sample and a control group. A growth-inhibiting ratio was then calculated from the resulting infection ratio in accordance with the following equation to determine 50% growth-inhibiting concentration (EC50).
(§1) Growth-inhibiting ratio (%)=[1−(b−a)/(c−a)]×100 • a: Initial infection ratio; • b: Infection ratio of the test sample group; and • c: Infection ratio of the control group.
A selective toxicity coefficient, which is used as an index for the selective toxicity for the protozoa of Leishmaniasis, was calculated by the following equation, and the pharmaceutical effect was determined.
A selective toxicity coefficient=(EC50 value of the test sample for rat L6 cell)/(EC50 value of the test sample for the protozoa of Leishmaniasis).

[5] = test system: Trypanosoma cruzi (Tulahuen C2C4 strain); test: in vitro growth-inhibiting screening assay, protozoa of American trypanosomiasis; format: cell-based; settings: Trypanosoma cruzi, TULAHUEN; in infected rat L6 cells; 96 h, CPRG/Nonidet; read-out: 50% growth-inhibiting concentration (nM) Trypanosoma cruzi
Experimental: The test was done using a trypomastigote and an amastigote of the protozoa of Trypanosoma cruzi (Tulahuen C2C4 strain) present in the infected rat L6 cells. The L6 cells were cultured in RPMI-1640 medium supplemented with 1% of […] (200 mM) and 10% of fetal calf serum under CO2 concentration of 5%, at 37° C.
A test sample was prepared by dissolving the test compounds according to the present invention and a positive control drug (benznidazole) in DMSO to a predetermined concentration. Culture medium containing the protozoa of 5×10^3 was added into each well of 96-well culture plate and cultured for 48 hours. After the medium was exchanged, the test sample comprising the predetermined amount of the test compound, and DMSO without the test compound were added into each well in duplicate.
After incubation of the culture plate for 96 hours in an incubator, a growth-inhibiting activity was assayed as follows. CPRG/Nonidet (50 μL) was added to each well followed by a further 2˜6-hour culture. The culture plate was then attached to an absorption micro titer plate reader, the absorbance at 540 nm was detected to calculate an infection ratio of the protozoa with respect to a group treated with the test sample and a control group. A growth-inhibiting ratio was then calculated from the resulting infection ratio in accordance with the following equation to determine 50% growth-inhibiting concentration (EC50).
as §1
A selective toxicity coefficient, which is used as an index for the selective toxicity for the protozoa of American trypanosomiasis, was calculated by the following equation, and the pharmaceutical effect was determined.
A selective toxicity coefficient=(EC50 value of the test sample for rat L6 cell)/(EC50 value of the test sample for the protozoa of American trypanosomiasis).

[6] = chloroquine-resistant strain, 72 h culture, 3H-hypoxanthine, read-out: 50% growth-inhibiting concentration (nM) P. falciparum K1
[7] = Table 3, 72 h, Alamar Blue, read-out: 50% growth-inhibiting concentration (nM) cytotoxicity L6

CNc1ccc2nc3ccc(=[N+](C)C)cc-3sc2c1.[Cl-] [Azure B]
EC50 (Plasmodium falciparum W2): 12.7 ± 7.36 nM
Suppression(%) (malaria): 9.1%

CCN(CC)CCCC(C)Nc1ccnc2cc(Cl)ccc12 (stereo not shown) [Chloroquine, reference compound]
EC50 ([1]; Plasmodium falciparum, K1, read-out: 50% growth-inhibiting concentration (nM) P. falciparum K1): 150 nM

CN(C)c1ccc2nc3ccc(=[N+](C)C)cc-3oc2c1.[O-][Cl+3]([O-])([O-])[O-] [Compound A-2]
Parasitaemia suppression (%) ([2]; 5 mg/kg/day intraperitoneal): 45.9%

CC[N+](CC)=c1ccc2nc3ccc(N(C)C)cc3oc-2c1.[O-][Cl+3]([O-])([O-])[O-] [Compound A-5]
Parasitaemia suppression (%) ([2]; 5 mg/kg/day intraperitoneal): 77.0%

CCN(C)c1ccc2nc3ccc(N(C)C)cc3[o+]c2c1.[O-][Cl+3]([O-])([O-])[O-] [Compound A-9, 3-ethylmethylamino-7-dimethylamino phenoxazinium perchlorate]
Cure rate (%) ([2]; 5 mg/kg/day intraperitoneal): 71.7%

CN(C)c1ccc2nc3ccc(N4CCNCC4)cc3[o+]c2c1.Cl.[Cl-] [Compound A-11, 3-dimethylamino-7-(1-piperazino) phenoxazinium chloride mono-hydrochloride salt]
EC50 [1, 6]: 27.5 nM
Parasitaemia suppression (%) ([2]; 5 mg/kg/day intraperitoneal): 54.8%
Parasitaemia suppression (%) ([2]; Table 5, 5.0 mg/kg/day intraperitoneal): 54.8%
Parasitaemia suppression (%) ([2]; Table 5, 10 mg/kg/day intraperitoneal): 78.5%
Parasitaemia suppression (%) ([2]; Table 5, 20 mg/kg/day intraperitoneal): 98.1%
Parasitaemia suppression (%) ([2]; Table 5, 30 mg/kg/day intraperitoneal): >99.99%
EC50 [3]: 63800 nM

CN1CCN(c2cc(O)c3nc4ccc(=[N+](C)C)cc-4oc3c2)CC1.Cl.[Cl-] [Compound A-14]
EC50 [1, 6]: 196 nM
Parasitaemia suppression (%) ([2]; 5 mg/kg/day intraperitoneal): 17.4%
EC50 [3, 7]: 86400 nM

C[N+](C)=c1ccc2nc3c(O)cc(N4CCN(CCO)CC4)cc3oc-2c1 [Compound A-15]
EC50 [1, 6]: 191 nM
EC50 [3, 7]: 74600 nM

CCOC(=O)N1CCN(c2cc(O)c3nc4ccc(=[N+](C)C)cc-4oc3c2)CC1.[Cl-] [Compound A-17]
Parasitaemia suppression (%) ([2]; 5 mg/kg/day intraperitoneal): 38.6%

CC(=O)Oc1cc(N2CCN(C)CC2)cc2oc3cc(=[N+](C)C)ccc-3nc12.Cl.[Cl-] [Compound A-19]
Parasitaemia suppression (%) ([2]; 5 mg/kg/day intraperitoneal): 21.4%

C[N+](C)=c1ccc2nc3c(C(=O)O)cc(O)c(O)c3oc-2c1.[Cl-] [Gallocyanine]
EC50 (Plasmodium falciparum W2): 674 ± 159 nM
Suppression(%) (malaria): 15.6%

CN(C)c1ccc2nc3ccc(=[N+](C)C)cc-3sc2c1.[Cl-] [Methylene Blue]
EC50 (Plasmodium falciparum W2): 3.99 ± 2.31 nM
Suppression(%) (malaria): 15.9%

CCCCCCCCCCCCCCCCOP(=O)([O-])OCC[N+](C)(C)C [Miltefosine, reference compound]
EC50 [4]: 280 nM

Cc1cc2nc3cc(C)c(N)cc3[n+](-c3ccccc3)c2cc1N.[Cl-] [Safranine O]
EC50 (Plasmodium falciparum W2): 34.8 ± 17.2 nM
Suppression(%) (malaria): 14.0%

O=C(Cn1ccnc1[N+](=O)[O-])NCc1ccccc1 [benznidazole, reference compound]
EC50 [5]: 870 nM
